From patent US10709119B2, “Methods of agent delivery into eggs and embryos of egg-producing aquatic animals for drug screening, agent toxicity assay and production of infertile fish” (University of Maryland Baltimore County, priority 2015, dated 2020)

Legend:
[1] = tested on: chorion of zebrafish eggs; experiment: Uptake of fluorescein-dextran by zebrafish eggs incubated with guanidine-containing compounds (chorion permeability); type: in vivo; conditions: 40 mM compound, 1 μM of 10, 20 or 40 KD fluorescein-dextran, 24 hours, versus untreated eggs
Experimental: Zebrafish eggs were incubated in solutions that contained 1 μM of 10, 20 or 40 KD fluorescein-dextran with either 0 or 40 mM of arginine, guanidine-HCl or guanidine-thiocyanate for 24 hours.
40 zebrafish eggs were transferred into each well of 48-well plates that contained 300 μl of fresh tank system water. After the allocation of eggs, system water in each well was replaced with 300 μl of water that contained 0 or 40 μM of poly-arginine (9-arginine polymer) and 1 μM of 10 KD fluorescein-dextran. After 4 hours of incubation the eggs were examined using a MZ12 stereomicroscope (Leica, Buffalo Grove, USA), or an Axioplan 2 fluorescence microscope (ZEISS, Thornwood, N.Y., USA). Both microscopes were equipped with a DP70 digital camera (Olympus, Center Valley, Pa., USA).

[2] = tested on: rainbow trout embryos / unfertilized eggs; experiment: Induction of sterility in rainbow trout by immersion of eggs in salmonids' dnd-MO-Vivo; conditions: 10 μM for 48 hours
Experimental: A dendrimeric octaguanidine with a triazine core also known as Vivo, was conjugated to salmonids' dnd-MO, 5′-[…]-3′ (SEQ ID NO. 3) and used in an immersion containing rainbow trout embryos in water, or unfertilized eggs in ovarian fluid or fertilization diluent. The ability of methods disclosed herein to induce sterility in rainbow trout was tested by administering the following:
I: Salmonids' dnd-MO-Vivo 10 μM for 48 hours, administration to fertilized eggs at the beginning of water activation (within 1 minute)
II: Salmonids' dnd-MO-Vivo 10 μM for 48 hours, administration to unfertilized eggs with the immersion medium of the ovarian fluid. The fertilization was conducted after 48 hours of incubation.
III: Salmonids' dnd-MO-Vivo 10 μM for 48 hours, administration to unfertilized eggs with the fertilization diluent that contains salt, Tris (pH 8.0), Glycine, and 5% of fish serum. The fertilization was conducted after 48 hours of incubation.
IV: Water or immersion medium only without salmonids' dnd-MO-Vivo as controls.

Atlantic salmon eggs = experiment: Induction of sterility in Atlantic salmon by immersion of eggs in salmonids' dnd-MO or dnd-MO-Vivo; conditions: 10-month-old fish
Experimental: A salmonids' dnd-MO (see Example 5) or a dendrimeric octaguanidine with a triazine core also known as Vivo, which was conjugated to salmonids' dnd-MO, resulting in salmonids' dnd-MO-Vivo, was used to induce sterility in Atlantic salmon and was tested by administering the following: • I: Salmonids' dnd-MO-Vivo 10 μM for 48 hours, administration to fertilized eggs at the beginning of water activation (within 1 minute). • II: Salmonids' dnd-MO-Vivo 10 μM for 48 hours, administration to unfertilized eggs with the immersion medium of the ovarian fluid. The eggs were fertilized after 48 hours of incubation. • III: Salmonids' dnd-MO-Vivo 10 μM for 48 hours, administration to unfertilized eggs with the immersion medium that contains salt, Tris (pH 8.0), Glycine, and 5% of fish serum. The fertilization was conducted after 48 hours of incubation. • IV: Salmonids' dnd-MO 20 μM for 48 hours, administration to unfertilized eggs with the immersion medium of the ovarian fluid. The eggs were fertilized after 48 hours of incubation. • V: Salmonids' dnd-MO 20 μM for 48 hours, administration to unfertilized eggs with the immersion medium that contains salt, Tris (pH 8.0), Glycine, and 5% of fish serum. The eggs were fertilized after 48 hours of incubation. • VI: Water or immersion medium only without neither salmonids' dnd-MO-Vivo nor dnd-MO as controls.

## N=C(N)NCCC[C@H](N)C(=O)O [arginine]
[1]
  uptake of fluorescein-dextran in the eggs (green fluorescence): enhanced the uptake of fluorescein-dextran

## Cl.N=C(N)N [guanidine-HCl]
[1]
  uptake of fluorescein-dextran in the eggs (green fluorescence): enhanced the uptake of fluorescein-dextran

## N#CS.N=C(N)N [guanidine-thiocyanate]
[1]
  uptake of fluorescein-dextran in the eggs (green fluorescence): enhanced the uptake of fluorescein-dextran

## salmonids' dnd-MO-Vivo: Vivo (dendrimeric octaguanidine with a triazine core) conjugated to salmonids' dnd-MO, 5′-CTGACTTGAACGCTCCTCCATTATC-3′ (SEQ ID NO. 3) (all phosphorodiamidate morpholino (PMO); Vivo octaguanidine dendrimer conjugated, attachment position not given here)
[2]
  infertility in rainbow trout: induced infertility
[2]; treatments I, II and III
  histological examination of gonadal tissue: under-developed without advanced gonadal structure or germ cells
[2]; treatments I, II and III (fertilized eggs at water activation; unfertilized eggs in ovarian fluid or fertilization diluent)
  gonad morphology: developed into a thin filament-like tissue
Atlantic salmon eggs; dnd-MO-Vivo 10 μM for 48 hours
  gonadal development in Atlantic salmon: blocked gonadal development
Atlantic salmon eggs; dnd-MO-Vivo 10 μM for 48 hours, treatments I, II, III
  gonad morphology: developed into a thin filament-like tissue

## salmonids' dnd-MO: antisense Morpholino oligomer against salmonid dead end, 5′-CTGACTTGAACGCTCCTCCATTATC-3′ (SEQ ID NO. 3) (all phosphorodiamidate morpholino (PMO))
Atlantic salmon eggs; dnd-MO 20 μM for 48 hours, treatments IV, V (unfertilized eggs in ovarian fluid or immersion medium)
  gonad morphology: developed into a thin filament-like tissue
Atlantic salmon eggs; dnd-MO 20 μM for 48 hours, unfertilized eggs
  gonadal development in Atlantic salmon: blocked gonadal development
